Reference: patent US10577362B2, “Substituted 2, 4-diamino-quinoline derivatives for use in the treatment of proliferative diseases” (GENOSCIENCE PHARMA, priority 2016, dated 2020)

How the values were obtained:
[1] = system: 786-O (renal adenocarcinoma) cell line; assay: CellTiter-Glo luminescent cell viability assay, 786-O; assay type: cell-based, human; settings: Homo sapiens, 786-0; for viability at 4 µM / viability at 10 µM: 786-O, 72 h; for viability at 4 µM: compound at 4 μM; for viability at 10 µM: compound at 10 μM; for EC50: 786-O cell line, 72 h incubation, CellTiter-Glo, read-out: EC50, growth inhibition of 786-O
Summary of the method: (§1)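 Luminescent signal, normalised to diluent-treated cultures, defines % viability; EC50 is the concentration lowering it to 50%. Cells had been exposed to compound for 72 h at 37 °C in medium with 10% FBS, at a constant H2O or DMSO percentage.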

[2] = system: A375 (malignant melanoma) cell line; assay: CellTiter-Glo luminescent cell viability assay, A375; assay type: cell-based, human; settings: Homo sapiens, A-375; for viability at 4 µM: A375, compound at 4 μM; for viability at 4 µM / viability at 10 µM: 72 h; for viability at 10 µM: A375, compound at 10 μM; for EC50: A375 cell line, 72 h incubation, CellTiter-Glo, read-out: EC50, growth inhibition of A375
Summary of the method: as §1

[3] = system: Huh7 (hepatocellular carcinoma) cell line; assay: CellTiter-Glo luminescent cell viability assay, Huh7; assay type: cell-based, human; settings: Homo sapiens, Huh-7; for viability at 4 µM: Huh7, compound at 4 μM; for viability at 4 µM / viability at 10 µM: 72 h; for viability at 10 µM: Huh7, compound at 10 μM; for EC50: Huh7 cell line, 72 h incubation, CellTiter-Glo, read-out: EC50, growth inhibition of Huh7
Summary of the method: (§2)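 In a 72 h viability assay, compound-treated cells were compared against matched H2O or DMSO diluent controls by luminescence, points in at least duplicate.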

[4] = system: HCT-116 (colorectal carcinoma) cell line; assay: CellTiter-Glo luminescent cell viability assay, HCT-116; assay type: cell-based, human; settings: Homo sapiens; for viability at 4 µM: HCT-116, compound at 4 μM; for viability at 4 µM / viability at 10 µM: 72 h; for viability at 10 µM: HCT-116, compound at 10 μM; for EC50: HCT-116 cell line, 72 h incubation, CellTiter-Glo, read-out: EC50, growth inhibition of HCT-116
Summary of the method: as §1

[5] = system: MOLM-14 (acute myeloid leukemia) cell line; assay: CellTiter-Glo luminescent cell viability assay, MOLM-14; assay type: cell-based, human; settings: Homo sapiens; for viability at 4 µM: MOLM-14, compound at 4 μM; for viability at 4 µM / viability at 10 µM: 72 h; for viability at 10 µM: MOLM-14, compound at 10 μM; for EC50: MOLM-14 cell line, 72 h incubation, CellTiter-Glo, read-out: EC50, growth inhibition of MOLM-14
Summary of the method: as §2

[6] = system: HepG2 (hepatocellular carcinoma) cell line; assay: CellTiter-Glo luminescent cell viability assay, HepG2; assay type: cell-based, human; settings: Homo sapiens; for viability at 4 µM / viability at 10 µM: HepG2, HepG, 72 h; for viability at 4 µM: compound at 4 μM; for viability at 10 µM: compound at 10 μM; for EC50: HepG2 cell line, 72 h incubation, CellTiter-Glo, read-out: EC50, growth inhibition of HepG2
Summary of the method: as §2

[7] = system: PANC-1 (prancreatic carcinoma) cell line; assay: CellTiter-Glo luminescent cell viability assay, PANC-1; assay type: cell-based; settings: Homo sapiens; for viability at 4 µM: PANC-1, 4 μM; for viability at 4 µM / viability at 10 µM: 72 h, % of signal of diluent-treated cultures; for viability at 10 µM: PANC-1, 10 μM; for EC50: PANC-1 cell line, 72 h incubation, CellTiter-Glo, read-out: EC50 (growth inhibition assay of PANC-1 cell line)
Summary of the method: as §2

SMILES	viability at 4 µM [1] [%]	viability at 10 µM [1] [%]	viability at 4 µM [2] [%]	viability at 10 µM [2] [%]	viability at 4 µM [3] [%]	viability at 10 µM [3] [%]	viability at 4 µM [4] [%]	viability at 10 µM [4] [%]	viability at 4 µM [5] [%]	viability at 10 µM [5] [%]	viability at 4 µM [6] [%]	viability at 10 µM [6] [%]	viability at 4 µM [7] [%]	viability at 10 µM [7] [%]	EC50 [1] [µM]	EC50 [2] [µM]	EC50 [3] [µM]	EC50 [4] [µM]	EC50 [5] [µM]	EC50 [6] [µM]	further results
CC(C)(C)NC1CCN(c2c(C#N)c(Nc3cccc(C(F)(F)F)c3)nc3ccccc23)CC1 [Compound 3256CN, 2-(3-trifluoromethylphenylamino)-3-cyano-4-[4-(tert-butylamino)piperidin-1-yl]quinoline]	61.8	13.7	55.2	2.4	78.3	29.3	3.6	0.2	91.1	85.6	82.9	56.6	104	81.8	–	–	–	–	–	–	–
Cc1cc(Nc2nc3ccccc3c(N3CCC(NC(C)(C)C)CC3)c2C#N)ccc1F [Compound 3250CN, 2-(3-methyl-4-fluorophenylamino)-3-cyano-4-[4-(tert-butylamino)piperidin-1-yl]quinoline]	30.3	0.4	0.7	0.3	67	0.5	0.2	0.1	87.5	0.6	71	0.5	94.7	13.1	0.5 to 5	0.5 to 5	5 to 10	0.5 to 5	5 to 10	0.5 to 5	EC50 [7]: 5 to 10 µM
CC(C)(C)NC1CCN(c2c(C#N)c(Nc3cccc(F)c3)nc3ccccc23)CC1 [Compound 3262CN, 2-(3-fluorophenylamino)-3-cyano-4-[4-(tert-butylamino)piperidin-1-yl]quinoline]	42.6	0.7	74.9	0.6	67.9	0.7	2.6	0.5	98.7	0.6	70.8	0.6	101	48	0.5 to 5	5 to 10	5 to 10	0.5 to 5	5 to 10	5 to 10	–
N#Cc1c(NCc2ccc(Cl)cc2)nc2ccccc2c1N1CCC(N2CCCC2)C1 (stereo not drawn) [Compound 148CN, 2-(4-chloro-benzylamino)-3-cyano-4-[3-(pyrrolidin-1-yl)pyrrolidin-1-yl]quinoline]	88.2	67	94.1	93.2	91.9	80.8	93.5	92.2	92.9	94.7	104	91.9	102	100	–	–	–	–	–	–	–
CC(C)(C)NC1CCN(c2c(C#N)c(NCc3ccc(F)cc3)nc3ccccc23)CC1 [Compound 240CN, 2-(4-fluorobenzylamino)-3-cyano-4-[4-(tert-butylamino)piperidin-1-yl]quinoline]	77.2	0.7	64.5	0.3	80	0.4	55.2	0.3	100	0.5	86.7	0.4	98.3	30	5 to 10	0.5 to 5	0.5 to 5	0.5 to 5	5 to 10	0.5 to 5	EC50 [7]: 5 to 10 µM
